Like-named read-outs stand apart in the source and are kept apart here.
Key:
Format in all cases: biochemical
ROCK I (AA 6-553) = ROCK I (AA 6-553) (Homo sapiens, UniProt Q13464); assay: ROCK inhibition assay, coupled enzyme system ("Enzyme"); settings: enzyme-linked assay; average Ki if more than one determined
Procedure: Reactions were carried out in a solution containing 100 mM HEPES (pH 7.5), 10 mM MgCl2, 25 mM NaCl, 2 mM DTT and 1.5% DMSO.
(§1) If more than one value of Ki has been determined, the average Ki is indicated. If no value is indicated, then the Ki was not determined.

PKA = PKA (Homo sapiens, UniProt P17612); assay: PKA inhibition assay, coupled enzyme; settings: average Ki if more than one determined
Procedure: Compounds were screened for their ability to inhibit PKA using a standard coupled enzyme assay (Fox et al., Protein Sci, 1998, 7, 2249). Assays were carried out in a mixture of 100 mM HEPES (pH 7.5), 10 mM MgCl2, 25 mM NaCl, 1 mM DTT and 3% DMSO. Final substrate concentrations in the assay were 50 μM ATP (Sigma Chemicals) and 80 μM peptide (Kemptide, American Peptide, Sunnyvale, Calif.). Assays were carried out at 30° C. and 18 nM PKA. Final concentrations of the components of the coupled enzyme system were 2.5 mM phosphoenolpyruvate, 300 μM NADH, 30 μg/ml pyruvate kinase and 10 μg/ml lactate dehydrogenase.
An assay stock buffer solution was prepared containing all of the reagents listed above, with the exception of ATP, and the test compound of the present invention. […] The plate was preincubated for 10 minutes at 30° C. and the reaction initiated by addition of 5 μl of ATP (final concentration 50 μM). Initial reaction rates were determined with a Molecular Devices SpectraMax Plus plate reader over a 15 minute time course. IC50 and Ki data were calculated from non-linear regression analysis using the Prism software package (GraphPad Prism version 3.0a for Macintosh, GraphPad Software, San Diego Calif., USA).

ROCK = ROCK (Homo sapiens, UniProt Q13464); assay: ROCK radioactive assay ("33P")
Excerpt: as §1

[1] = radioactive assay, average Ki if more than one determined, read-out: ROCK 33P Ki

ROCK I (AA 6-553), sequence (Q13464 6-553, species assumed): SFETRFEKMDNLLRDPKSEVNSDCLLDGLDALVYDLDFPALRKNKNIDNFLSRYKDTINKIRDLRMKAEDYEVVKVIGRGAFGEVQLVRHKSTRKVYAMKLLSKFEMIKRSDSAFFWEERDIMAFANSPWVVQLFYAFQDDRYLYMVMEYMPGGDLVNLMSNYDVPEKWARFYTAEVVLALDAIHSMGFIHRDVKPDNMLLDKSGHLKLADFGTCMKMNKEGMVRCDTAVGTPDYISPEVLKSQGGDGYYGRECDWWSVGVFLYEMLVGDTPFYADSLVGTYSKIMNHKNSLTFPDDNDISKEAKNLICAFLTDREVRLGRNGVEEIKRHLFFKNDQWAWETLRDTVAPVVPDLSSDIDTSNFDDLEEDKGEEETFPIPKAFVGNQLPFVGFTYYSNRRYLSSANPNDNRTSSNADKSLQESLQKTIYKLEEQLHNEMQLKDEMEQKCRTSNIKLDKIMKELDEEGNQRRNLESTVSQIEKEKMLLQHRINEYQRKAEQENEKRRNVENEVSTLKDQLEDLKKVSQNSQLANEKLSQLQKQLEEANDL
ROCK, sequence (Q13464 whole entry): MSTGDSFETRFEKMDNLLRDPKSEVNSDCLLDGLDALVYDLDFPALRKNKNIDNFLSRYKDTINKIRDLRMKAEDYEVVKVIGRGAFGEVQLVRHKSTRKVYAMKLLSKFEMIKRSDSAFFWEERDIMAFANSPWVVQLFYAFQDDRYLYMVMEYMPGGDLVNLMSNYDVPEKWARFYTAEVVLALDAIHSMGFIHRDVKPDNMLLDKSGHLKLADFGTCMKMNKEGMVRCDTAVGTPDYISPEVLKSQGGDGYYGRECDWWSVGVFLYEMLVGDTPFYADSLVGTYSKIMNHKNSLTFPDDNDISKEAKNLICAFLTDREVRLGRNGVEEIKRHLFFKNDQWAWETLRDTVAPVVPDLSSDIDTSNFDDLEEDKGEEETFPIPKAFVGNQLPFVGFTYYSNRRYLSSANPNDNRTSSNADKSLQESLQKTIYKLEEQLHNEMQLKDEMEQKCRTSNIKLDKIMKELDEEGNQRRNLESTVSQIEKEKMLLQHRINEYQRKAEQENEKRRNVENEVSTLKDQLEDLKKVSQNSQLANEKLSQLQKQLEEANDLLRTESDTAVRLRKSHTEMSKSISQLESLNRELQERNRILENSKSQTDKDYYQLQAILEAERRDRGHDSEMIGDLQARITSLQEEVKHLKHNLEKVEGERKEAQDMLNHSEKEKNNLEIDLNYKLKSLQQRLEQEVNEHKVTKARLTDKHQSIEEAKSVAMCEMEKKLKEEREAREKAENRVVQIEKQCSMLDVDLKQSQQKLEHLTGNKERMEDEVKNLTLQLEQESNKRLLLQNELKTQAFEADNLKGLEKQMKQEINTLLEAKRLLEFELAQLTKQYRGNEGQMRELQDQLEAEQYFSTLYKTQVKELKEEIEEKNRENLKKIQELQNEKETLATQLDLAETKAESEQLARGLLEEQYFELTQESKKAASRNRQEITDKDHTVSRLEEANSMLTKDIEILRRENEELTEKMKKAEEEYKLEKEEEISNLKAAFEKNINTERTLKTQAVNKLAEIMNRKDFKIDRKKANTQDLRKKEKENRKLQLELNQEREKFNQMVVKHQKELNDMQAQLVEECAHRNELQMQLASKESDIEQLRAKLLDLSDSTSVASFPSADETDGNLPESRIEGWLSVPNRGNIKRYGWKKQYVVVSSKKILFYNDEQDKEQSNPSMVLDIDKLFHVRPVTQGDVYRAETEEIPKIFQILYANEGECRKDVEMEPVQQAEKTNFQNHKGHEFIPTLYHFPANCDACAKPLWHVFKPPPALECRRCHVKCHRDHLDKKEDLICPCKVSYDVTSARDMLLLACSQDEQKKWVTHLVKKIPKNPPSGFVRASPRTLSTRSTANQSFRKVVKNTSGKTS

Row | Compound | Ki (ROCK I (AA 6-553)) [nM] | Ki (PKA) [nM] | Ki (ROCK; [1]) [nM] | Ki (ROCK) [nM]
1 | O=C(Cc1ccccc1F)Nc1nc(-c2c[nH]c3ncccc23)cs1 [I-3] | < 500 | < 500 |  | 
2 | O=C(Cc1ccc(F)cc1)Nc1nc(-c2c[nH]c3ncccc23)cs1 [I-4] | < 500 | < 500 |  | 
3 | O=C(Cc1ccc(F)cc1F)Nc1nc(-c2c[nH]c3ncccc23)cs1 [I-6] | < 500 | < 500 |  | 
4 | O=C(CCc1ccccc1)Nc1nc(-c2c[nH]c3ncccc23)cs1 [I-7] | < 500 | < 500 |  | 
5 | CC(C)(C)OC(=O)N1CCC(CCCOc2cccc(CC(=O)Nc3nc(-c4c[nH]c5ncccc45)cs3)c2)CC1 [I-9] | < 500 | 500 to 5000 |  | 
6 | CS(=O)(=O)Oc1cccc(CC(=O)Nc2nc(-c3c[nH]c4ncccc34)cs2)c1 [I-10] | < 500 | < 500 |  | 
7 | O=C(Cc1cc2c(cc1Cl)OCO2)Nc1nc(-c2c[nH]c3ncccc23)cs1 [I-13] | < 500 | < 500 |  | 
8 | COc1ccc(CC(=O)Nc2nc(-c3c[nH]c4ncccc34)cs2)c(Cl)c1 [I-18] | < 500 | < 500 |  | 
9 | COc1cccc(CC(=O)Nc2nnc(-c3c[nH]c4ncccc34)s2)c1 [I-21] | < 500 | < 500 |  | 
10 | O=C(Cc1ccc(F)cc1F)Nc1nnc(-c2c[nH]c3ncccc23)s1 [I-22] | < 500 | < 500 |  | 
11 | O=C(Cc1ccccc1F)Nc1nnc(-c2c[nH]c3ncccc23)s1 [I-23] | < 500 | < 500 |  | 
12 | c1cnc2[nH]cc(-c3csc(NC4CC4)n3)c2c1 [II-3] | 500 to 5000 | 500 to 5000 |  | 
13 | O=C(Cc1cccc(S(=O)(=O)NC2CC2)c1)Nc1nc(-c2c[nH]c3ncccc23)cs1 [II-6] | < 500 | < 500 |  | 
14 | O=C(Cc1ccc(F)cc1)Nc1nnc(-c2c[nH]c3ncccc23)s1 [II-7] | < 500 | < 500 |  | 
15 | O=C(Cc1ccccc1)Nc1nnc(-c2c[nH]c3ncccc23)s1 [II-8] | < 500 | < 500 |  | 
16 | CS(=O)(=O)Nc1cccc(CC(=O)Nc2nnc(-c3c[nH]c4ncccc34)s2)c1 [II-9] | < 500 | < 500 |  | 
17 | O=C(Cc1cc2c(cc1Cl)OCO2)Nc1nnc(-c2c[nH]c3ncccc23)s1 [II-10] | < 500 | 500 to 5000 |  | 
18 | O=C(Cc1ccccc1F)Nc1nc(-c2c[nH]c3nccc(F)c23)cs1 [II-11] | < 500 | < 500 |  | 
19 | O=C(Cc1ccc(F)cc1)Nc1nc(-c2c[nH]c3nccc(F)c23)cs1 [II-12] | < 500 | < 500 |  | 
20 | O=C(Cc1ccc(F)cc1F)Nc1nc(-c2c[nH]c3nccc(F)c23)cs1 [II-13] | < 500 | < 500 |  | 
21 | CS(=O)(=O)Nc1cccc(CC(=O)Nc2nc(-c3c[nH]c4nccc(F)c34)cs2)c1 [II-14] | < 500 | 500 to 5000 |  | 
22 | O=C(CCc1ccccc1)Nc1nc(-c2c[nH]c3nccc(F)c23)cs1 [II-15] | < 500 | < 500 |  | 
23 | O=C(Cc1ccccc1)Nc1nc(-c2c[nH]c3nccc(F)c23)cs1 [II-16] | < 500 | < 500 |  | 

Row | Compound | Ki (ROCK I (AA 6-553)) [nM] | Ki (PKA) [nM] | Ki (ROCK; [1]) [nM] | Ki (ROCK) [nM]
24 | O=C(Cc1cccc(OCCCC2CCNCC2)c1)Nc1nc(-c2c[nH]c3nccc(F)c23)cs1 [II-17] | < 500 | 500 to 5000 |  | 
25 | O=C(Cc1ccc2c(c1)OCO2)Nc1nc(-c2c[nH]c3nccc(F)c23)cs1 [II-18] | < 500 | < 500 |  | 
26 | COc1cccc(CNC(=O)c2csc(-c3c[nH]c4ncccc34)n2)c1 [II-21] | < 500 |  |  | 
27 | O=C(Cc1cccc(OCCCC2CCNCC2)c1)Nc1nnc(-c2c[nH]c3ncccc23)s1 [II-22] | < 500 |  |  | 
28 | CC(=O)N(CCCN1CCN(C)CC1)c1nc(-c2c[nH]c3ncccc23)cs1 [II-204] |  | 500 to 5000 | < 500 | 
29 | O=C(Cc1cccnc1)Nc1nc(-c2c[nH]c3ncccc23)cs1 [II-205] |  | < 500 | < 500 | 
30 | O=C(Cc1cccnc1)Nc1nc(-c2c[nH]c3ncc(F)cc23)cs1 [II-206] |  | < 500 | < 500 | 
31 | O=C(Nc1nc(-c2c[nH]c3ncccc23)cs1)[C@@H](O)c1ccccc1 [II-207] |  | < 500 | < 500 | 
32 | COc1cccc(C(O)C(=O)Nc2nc(-c3c[nH]c4ncccc34)cs2)c1 (centres unmarked) [II-208] |  | < 500 | < 500 | 
33 | O=C(Nc1nc(-c2c[nH]c3ncccc23)cs1)C(O)c1ccc(F)cc1F (centres unmarked) [II-209] |  | < 500 | < 500 | 
34 | O=C(Nc1nc(-c2c[nH]c3ncccc23)cs1)[C@H](O)c1ccccc1 [II-210] |  | < 500 | < 500 | 
35 | CS(=O)(=O)Nc1cccc(C(O)C(=O)Nc2nc(-c3c[nH]c4ncccc34)cs2)c1 (centres unmarked) [II-211] |  | < 500 | < 500 | 
36 | Nc1cccc(C(O)C(=O)Nc2nc(-c3c[nH]c4ncccc34)cs2)c1 (centres unmarked) [II-212] |  | < 500 | < 500 | 
37 | NC(C(=O)Nc1nc(-c2c[nH]c3ncccc23)cs1)c1ccc(F)cc1 (centres unmarked) [II-213] |  | < 500 | < 500 | 
38 | N[C@@H](C(=O)Nc1nc(-c2c[nH]c3ncccc23)cs1)c1ccccc1 [II-214] |  | < 500 | < 500 | 
39 | O=C(Cc1ccccn1)Nc1nc(-c2c[nH]c3ncccc23)cs1 [II-215] |  | < 500 | < 500 | 
40 | CS(=O)(=O)Nc1cccc(CC(=O)Nc2nc(-c3c[nH]c4c3ccc[n+]4[O-])cs2)c1 [II-216] |  | 500 to 5000 |  | < 500
41 | CS(=O)(=O)NCC(=O)Nc1nc(-c2c[nH]c3ncccc23)cs1 [II-217] |  | < 500 | < 500 | 
42 | CCS(=O)(=O)NCC(=O)Nc1nc(-c2c[nH]c3ncccc23)cs1 [II-218] |  | < 500 | < 500 | 
43 | CS(=O)(=O)Nc1cccc(C(N)C(=O)Nc2nc(-c3c[nH]c4ncccc34)cs2)c1 (centres unmarked) [II-219] |  | < 500 | < 500 | 
44 | CC(C)S(=O)(=O)NCC(=O)Nc1nc(-c2c[nH]c3ncccc23)cs1 [II-220] |  | < 500 | < 500 | 
45 | CCS(=O)(=O)C(C)C(=O)Nc1nc(-c2c[nH]c3ncccc23)cs1 (centres unmarked) [II-221] |  | < 500 | < 500 | 
46 | C[C@H](NS(C)(=O)=O)C(=O)Nc1nc(-c2c[nH]c3ncccc23)cs1 [II-222] |  | < 500 | < 500 | 

Row | Compound | Ki (ROCK I (AA 6-553)) [nM] | Ki (PKA) [nM] | Ki (ROCK; [1]) [nM] | Ki (ROCK) [nM]
47 | CC(C)[C@H](NS(C)(=O)=O)C(=O)Nc1nc(-c2c[nH]c3ncccc23)cs1 [II-223] |  | < 500 | < 500 | 
48 | CCCC(C(=O)Nc1nc(-c2c[nH]c3ncccc23)cs1)S(C)(=O)=O (centres unmarked) [II-224] |  | 500 to 5000 | < 500 | 
49 | CCCC(C(=O)Nc1nc(-c2c[nH]c3ncccc23)cs1)S(=O)(=O)CC (centres unmarked) [II-225] |  | 500 to 5000 | < 500 | 
50 | CC(C(=O)Nc1nc(-c2c[nH]c3ncccc23)cs1)S(C)(=O)=O (centres unmarked) [II-226] |  | < 500 | < 500 | 
51 | CC(C)[C@@H](NS(C)(=O)=O)C(=O)Nc1nc(-c2c[nH]c3ncccc23)cs1 [II-227] |  | < 500 | < 500 | 
52 | C[C@@H](NS(C)(=O)=O)C(=O)Nc1nc(-c2c[nH]c3ncccc23)cs1 [II-228] |  | < 500 | < 500 | 
53 | CS(=O)(=O)N1CCC[C@H]1C(=O)Nc1nc(-c2c[nH]c3ncccc23)cs1 [II-229] |  | < 500 | < 500 | 
54 | CS(=O)(=O)N1CCC[C@@H]1C(=O)Nc1nc(-c2c[nH]c3ncccc23)cs1 [II-230] |  | < 500 | < 500 | 
55 | CN(CC(=O)Nc1nc(-c2c[nH]c3ncccc23)cs1)S(C)(=O)=O [II-231] |  | < 500 | < 500 | 
56 | CS(=O)(=O)N[C@H](COCc1ccccc1)C(=O)Nc1nc(-c2c[nH]c3ncccc23)cs1 [II-232] |  | < 500 | < 500 | 
57 | CS(=O)(=O)N[C@@H](COCc1ccccc1)C(=O)Nc1nc(-c2c[nH]c3ncccc23)cs1 [II-233] |  | < 500 | < 500 | 
58 | CCNC(=O)Nc1nc(-c2c[nH]c3ncccc23)cs1 [II-234] |  | 500 to 5000 | 500 to 5000 | 
59 | O=C(NCCO)Nc1nc(-c2c[nH]c3ncccc23)cs1 [II-235] |  | 500 to 5000 | 500 to 5000 | 
60 | O=C(Nc1nc(-c2c[nH]c3ncccc23)cs1)N1CCOCC1 [II-236] |  | 500 to 5000 | 500 to 5000 | 
61 | CN1CCN(C(=O)Nc2nc(-c3c[nH]c4ncccc34)cs2)CC1 [II-237] |  | 500 to 5000 | 500 to 5000 | 
62 | O=C(Nc1nc(-c2c[nH]c3ncccc23)cs1)N1CCCCC1 [II-238] |  | 500 to 5000 | 500 to 5000 | 
63 | O=C(Nc1nc(-c2c[nH]c3ncccc23)cs1)NC1CCC(C(=O)O)CC1 (centres unmarked) [II-239] |  | 500 to 5000 | < 500 | 
64 | CN(C)C(=O)Nc1nc(-c2c[nH]c3ncccc23)cs1 [II-240] |  | 500 to 5000 | 500 to 5000 | 
65 | O=C(Nc1nc(-c2c[nH]c3ncccc23)cs1)N1CCCC1 [II-241] |  | 500 to 5000 | 500 to 5000 | 
66 | CC(CN(C)C)NC(=O)Nc1nc(-c2c[nH]c3ncccc23)cs1 (centres unmarked) [II-242] |  | 500 to 5000 | 500 to 5000 | 
67 | O=C(Nc1nc(-c2c[nH]c3ncccc23)cs1)N1CCNCC1 [II-243] |  | 500 to 5000 | 500 to 5000 | 
68 | CC(C)NC(=O)Nc1nc(-c2c[nH]c3ncccc23)cs1 [II-244] |  | 500 to 5000 | < 500 | 
